For test [1], the target named is T1, human recombinant GST-PAK1-KD protein (Homo sapiens, UniProt Q13153).
T1 construct: residues #249-545 of human PAK1, UniProtKP/Swiss Q13153; His6 (N); made in house; host or cells: Sf9 insect cells, pAcGP67 baculovirus expression vector
Kind of test: GST-PAK1-KD (kinase domain) biochemical assay, microfluidic mobility shift.

For test [2], the system named is group I PAKs (PAK1-3) in EBC1 cells, MEK1 phosphorylation at S298. Kind of test: Cellular PAK assay: MEK1 (S298) phosphorylation in EBC1 cells, HTRF. The test is classed as cell-based. As to conditions: Homo sapiens, EBC-1, 2 h treatment, Example 66. The procedure:
Group I PAKs (PAK1-3) are activated upon binding to the Rho GTPases, Rac1 and Cdc42. […] The inhibition of group I PAKs in EBC1 cells is assessed by detecting changes in the level of MEK1 phosphorylation at S298 using homogenous time-resolved fluorescence (HTRF). […] Following inhibitor treatment, cells were lysed with 25 μL of 1× cellular kinase lysis buffer (Cisbio) containing 1× cellular kinase blocking reagent (Cisbio). Cellular lysis was carried out at 4° C. for 2 h with constant shaking before lysate (16 μL) was transferred to white 384-well ProxiPlates™ (Perkin Elmer).

Where [3] appears, read: GST-PAK1-KD Inhibition Assay - Example 65, read-out: PAK1 inhibition Ki.
The mark [4] stands for this setting: Table II, PAK1 Ki class, read-out: Ki.
The mark [5] stands for this setting: Table I, PAK1 Ki class, read-out: Ki.

Ki and IC50 data for 15 compounds are collected here from US8637537B2, “Serine/threonine kinase inhibitors” (Genentech, Inc., priority 2011, dated 2014).

pIC50, pKi: −log10 of the molar value. Where two headings read alike, the source gives them in different places. Some results are limits rather than exact numbers.

T1 sequence (Q13153 249-545): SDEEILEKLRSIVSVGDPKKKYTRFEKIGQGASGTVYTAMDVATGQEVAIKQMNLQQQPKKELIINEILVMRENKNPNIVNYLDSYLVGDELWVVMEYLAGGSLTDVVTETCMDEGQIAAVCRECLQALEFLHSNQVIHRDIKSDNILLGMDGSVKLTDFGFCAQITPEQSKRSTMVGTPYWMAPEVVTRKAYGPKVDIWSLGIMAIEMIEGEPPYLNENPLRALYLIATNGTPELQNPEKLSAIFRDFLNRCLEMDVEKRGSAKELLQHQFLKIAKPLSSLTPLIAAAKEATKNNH

By pKi is commonly meant the negative decadic logarithm of the Ki, by convention in mol/L. One may read the pIC50 as the negative decadic logarithm of the IC50, by convention in mol/L. Read a low pIC50 as a large IC50. As for `CN(C)CCN(Cc1cc(F)cc2[nH]ncc12)c1nccc(Nc2cc([C@@H]3C[C@@H]3F)[nH]n2)n1` [II-73, N^2-(2-(dimethylamino)ethyl)-N^2-((6-fluoro-1H-indazol-4-yl)methyl)-N^4-(5-((1S,2S)-2-fluorocyclopropyl)-1H-pyrazol-3-yl)pyrimidine-2,4-diamine], the figures for the pKi in test [1] (setting [3]) and in test [1] (setting [4]) were 7.89 and more than 7.30, respectively. Further, in test [2], the pIC50 is 6.38.
As for `C[C@H](Nc1nccc(Nc2cc(C3CCC3)[nH]n2)n1)c1ccc2[nH]ccc2c1` [I-114, (S)—N^2-(1-(1H-indol-5-yl)ethyl)-N^4-(5-cyclobutyl-1H-pyrazol-3-yl)pyrimidine-2,4-diamine], the pKi was 8.17 in test [1] (setting [3]) and more than 7.30 in test [1] (setting [5]). The pIC50 in test [2] was 6.88.
The corresponding values for `FC(F)(F)c1cc(Nc2cc(C3CC3)[nH]n2)nc(NCc2ccc3[nH]cnc3c2)n1` [I-11, N^2-((1H-benzo[d]imidazol-5-yl)methyl)-N^4-(5-cyclopropyl-1H-pyrazol-3-yl)-6-(trifluoromethyl)pyrimidine-2,4-diamine] are 7.48, more than 7.30 and 6.04.
For `c1cc(CNc2nccc(Nc3cc(C4CC4)[nH]n3)n2)c2nc[nH]c2c1` [I-39, N^2-((1H-benzo[d]imidazol-4-yl)methyl)-N^4-(5-cyclopropyl-1H-pyrazol-3-yl)pyrimidine-2,4-diamine] the same measures were 7.13, 6.60 to 7.30 and 6.69.
Regarding `CN(Cc1ccc2[nH]cnc2c1)c1nc(Nc2cc(C3CC3)[nH]n2)cc(C(C)(C)O)n1` [II-97, 2-[2-[(1H-Benzoimidazol-5-ylmethyl)-methyl-amino]-6-(5-cyclopropyl-1H-pyrazol-3-ylamino)-pyrimidin-4-yl]-propan-2-ol], the pKi was 7.38 in test [1] (setting [3]) and more than 7.30 in test [1] (setting [4]). In test [2], this compound had a pIC50 of 5.77.
Regarding `CC(CO)N(Cc1cc(F)cc2[nH]ncc12)c1nccc(Nc2cc(C3CC3)[nH]n2)n1` (stereo not drawn) [II-56, 2-((4-((5-cyclopropyl-1H-pyrazol-3-yl)amino)pyrimidin-2-yl)((6-fluoro-1H-indazol-4-yl)methyl)amino)propan-1-ol], the pKi in test [1] (setting [3]) was 8.38; in test [1] (setting [4]) it was more than 7.30. Moreover, the pIC50 in test [2] is 7.15.
Consider `Fc1cnc(NCc2cc(Cl)cc3[nH]cnc23)nc1Nc1cc(C2CC2)[nH]n1` [II-23, N^2-((6-Chloro-1H-benzo[d]imidazol-4-yl)methyl)-N^4-(5-cyclopropyl-1H-pyrazol-3-yl)-5-fluoropyrimidine-2,4-diamine], for which the negative logarithm of the Ki (pKi) in test [1] (setting [3]) was 7.44; in test [1] (setting [4]), more than 7.30. In test [2], this compound gave a pIC50 of 6.73.
For the compound `Clc1c(CNc2nccc(Nc3cc(C4CCCO4)[nH]n3)n2)ccc2[nH]cnc12` (stereo not drawn) [I-109, N^2-((4-chloro-1H-benzo[d]imidazol-5-yl)methyl)-N^4-(5-(tetrahydrofuran-2-yl)-1H-pyrazol-3-yl)pyrimidine-2,4-diamine], the pKi in test [1] (setting [3]) was 7.56; in test [1] (setting [5]), more than 7.30. The pIC50 in test [2] is 6.10.
As to `C[C@H](Nc1nccc(Nc2cc(C3CC3)[nH]n2)n1)c1ccc2[nH]ccc2c1` [I-8, (S)—N^2-(1-(1H-indol-5-yl)ethyl)-N^4-(5-cyclopropyl-1H-pyrazol-3-yl)pyrimidine-2,4-diamine], the negative-log Ki (pKi) was 7.82 in test [1] (setting [3]) and more than 7.30 in test [1] (Ki, Table I, PAK1 Ki class). The same compound gave a pIC50 in test [2] of 6.88.
For the compound `CN(Cc1ccc2[nH]cnc2c1Cl)c1nccc(Nc2cc(C3COC3)[nH]n2)n1` [II-2, N^2-[(4-Chloro-1H-benzimidazol-5-yl)methyl]-N^2-methyl-N4-[5-(oxetan-3-yl)-1H-pyrazol-3-yl]pyrimidine-2,4-diamine], the pKi in test [1] (setting [3]) is 8.15; in test [1] (setting [4]) it was more than 7.30. The pIC50 in test [2] was 6.32.
Consider `Clc1cnc(NCc2ccc3[nH]cnc3c2Cl)nc1Nc1cc(C2CC2)[nH]n1` [I-106, 5-chloro-N^2-((4-chloro-1H-benzo[d]imidazol-5-yl)methyl)-N^4-(5-cyclopropyl-1H-pyrazol-3-yl)pyrimidine-2,4-diamine], for which the pKi was 7.83 in test [1] (setting [3]) and more than 7.30 in test [1] (setting [5]). In test [2], this compound gave a pIC50 of 5.89.
Consider `CCN(Cc1ccc2[nH]cnc2c1Cl)c1nccc(Nc2cc([C@@H]3C[C@@H]3F)[nH]n2)n1` [II-51, N^2-((4-chloro-1H-benzo[d]imidazol-5-yl)methyl)-N^2-ethyl-N^4-(5-((1S,2S)-2-fluorocyclopropyl)-1H-pyrazol-3-yl)pyrimidine-2,4-diamine], for which the pKi in test [1] (setting [3]) is 8.60; in test [1] (setting [4]) it was more than 7.30. Besides, in test [2], the negative logarithm of the IC50 (pIC50) is 7.18.
As for `Cc1n[nH]c2cc(Cl)cc(CNc3ncc(F)c(Nc4cc(C5CC5)[nH]n4)n3)c12` [II-24, N^2-((6-Chloro-3-methyl-1H-indazol-4-yl)methyl)-N^4-(5-cyclopropyl-1H-pyrazol-3-yl)-5-fluoropyrimidine-2,4-diamine], the pKi in test [1] (setting [3]) is 7.38; in test [1] (setting [4]), more than 7.30. The compound also showed a pIC50 in test [2] of 6.47.
For `COc1cc(CNc2nccc(Nc3cc(C4CC4)[nH]n3)n2)c2cn[nH]c2c1` [II-74, N^4-(5-cyclopropyl-1H-pyrazol-3-yl)-N^2-((6-methoxy-1H-indazol-4-yl)methyl)pyrimidine-2,4-diamine] the same measures were 7.87, more than 7.30 and 6.72.
For `CN(Cc1ccc2nc[nH]c2c1Cl)c1nccc(Nc2cc(CCC#N)[nH]n2)n1` [II-45, 3-(3-(2-(((4-Chloro-3H-benzo[d]imidazol-5-yl)methyl)(methyl)amino)pyrimidin-4-ylamino)-1H-pyrazol-5-yl)propanenitrile] the same measures were 6.78, 6.60 to 7.30 and 5.72.
